# Source: patent US10196360B2, “Crystal forms of bedaquiline fumarate and preparation methods therefor” (Zhejiang Hisun Pharmaceutical Co., Ltd., priority 2015, dated 2019)
# Key:
# [1] = Particle size test (Mastersizer 2000); type: physicochemical; conditions: non-micronized, dispersant n-hexane, fumarate
# Procedure: The test conditions for the particle size involved in the present invention are: Mastersizer model: Mastersizer 2000; operation method: 20 mg of bedaquiline fumarate sample is taken, about 5.0 ml dispersant (n-hexane) is added, the sample is subjected to ultrasonication for 1.0 min, is allowed to stabilize for 0.5-1.0 min and then is tested.
# Test Procedure: the Hydro2000SM injector was connected and the Small Volume Sample Dispersion Unit tachometer was turned on, then a suitable amount of ethanol was added to the sample cell to clean the detection channel of the instrument. A suitable amount of n-hexane (dispersant) was added to the dispersion cup, a suitable amount of n-hexane (dispersant) was inlet into the instrument to exhaust gas, the stirring rate was set to 2950 rpm, optical correction and background measurement were carried out.
# The suspension was added to the sample cell until the opacity was between 15% to 20%, the suspension was allowed to stabilize for 0.5-1.0 min, the measurement time was 4 sec, the test results was saved automatically by the system.
# [2] = Solubility of the crystal forms in different solvents at 50° C.; type: physicochemical
# [3] = N,N-dimethylformamide, fumarate
D (0.1) [1] [um],D (0.5) [1] [um],D (0.9) [1] [um],"solubility ([2]; Methanol, fumarate) [mg/mL]","solubility [2, 3] [mg/mL]","solubility ([2]; Tetrahydrofuran, fumarate) [mg/mL]",solubility ([2]; Water),Compound
4.991,16.303,37.967,2000,1000,1000,insoluble,"COc1nc2ccc(Br)cc2cc1[C@@H](c1ccccc1)[C@@](O)(CCN(C)C)c1cccc2ccccc12.O=C(O)/C=C/C(=O)O [Crystal form I, (1R,2S)-1-(6-bromo-2-methoxyquinolin-3-yl)-4-dimethylamino-1-phenyl-2-(1-naphthyl)-2-butanol fumarate]"
3.146,12.646,37.019,6000,2000,5000,insoluble,"COc1nc2ccc(Br)cc2cc1[C@@H](c1ccccc1)[C@@](O)(CCN(C)C)c1cccc2ccccc12.O=C(O)/C=C/C(=O)O [Crystal form II, (1R,2S)-1-(6-bromo-2-methoxyquinolin-3-yl)-4-dimethylamino-1-phenyl-2-(1-naphthyl)-2-butanol fumarate]"
10.034,33.721,68.295,6000,3000,3000,insoluble,"COc1nc2ccc(Br)cc2cc1[C@@H](c1ccccc1)[C@@](O)(CCN(C)C)c1cccc2ccccc12.O=C(O)/C=C/C(=O)O [Crystal form III, (1R,2S)-1-(6-bromo-2-methoxyquinolin-3-yl)-4-dimethylamino-1-phenyl-2-(1-naphthyl)-2-butanol fumarate]"
